The values that follow come from US20260364124A1, “ANTI-C. DIFFICILE SMALL MOLECULE METABOLITES FROM DIET AND GUT MICROBIOME” (The Children's Medical Center Corporation, priority 2023, published 2026).

This test relates to C. difficile M7404. Nature of the test: In vitro polydatin bioactivation and C. difficile antagonism by conditioned (spent) media of B. uniformis AgshD. Format: cell-based, Clostridioides difficile. The conditions noted are these: polydatin 500 μM, 1/2-diluted, C. difficile M7404 growth 12 h (FIG. 5A). The method, then:
FIGS. 5A and 5B show microbiome-mediated polyphenol aglycone liberation. […] Step 2: Spent media was filter-sterilized. Step 3: C. difficile was grown in spent media from either vehicle or polydatin (top).
Generation of Bacteroides gene deletion mutants: Clean deletion mutants were created by allelic replacement whereby Bacteroides uniformis ATCC 8492 gshD (BACUNI_00919)was deleted. A modified pKNOCK-bla-ermGb suicide vector, pKNOCK-bla-ermGb_pheS*, that was previously engineered with a counter-selection system mediated by a variant phenylalanyl-tRNA synthetase (PheSA303G), lethal in the presence of 4-chloro-phenylalanine was leveraged. To generate deletion constructs, 1 kb regions flanking the genomic region-of-interest were amplified by PCR (Platinum SuperFi PCR Master Mix), purified, and cloned into the pKNOCK-bla-ermGb_pheS* plasmid in a three-piece ligation reaction. To mobilize resulting plasmids into Bacteroides, a triparental mating strategy was implemented. Overnight cultures of Bacteroides grown in BSG were diluted 50-fold into fresh pre-reduced BSG and grown to early exponential phase (OD600 ~0.1). The recipient strain was centrifuged at 4,000 rpm for 5 minutes and resuspended in 200 μL of 1× PBS. One-day-old E. coliDH5α lambda pir donor strain and E. coliDH5α helper strain with pRK 231 were scrapped from LB agar plates into 200 μL of 1× PBS. […]

Each structure is given as a SMILES string.

`OC[C@H]1O[C@@H](Oc2cc(O)cc(/C=C/c3ccc(O)cc3)c2)[C@H](O)[C@@H](O)[C@@H]1O` [polydatin]: the “anti-C. difficile activity of conditioned media from B. uniformis gshD mutant grown with polydatin” value was “ablated in B. uniformis AgshD”.
